The values that follow come from US10072005B2, “4-azaindole derivatives” (EISAI R&D MANAGEMENT CO., LTD., priority 2013, dated 2018).

One assay has as its target mAChR M4 (Homo sapiens (Human), UniProt P08173). In words: In vitro cellular calcium flux assay, PAM, NAM and agonist modes, mAChR M4. The class given is cell-based. The method, then: Baby hamster kidney cells stably expressing human or rat mAChR M1 to M5 were utilised for primary and selectivity profiling activities. mAChR M2 and M4 cell lines also stably expressed the chimeric Gαqi5 G-protein.
Human mAChR M1, M3, M5 and rat M1 cells were grown in low glucose Dulbecco's Modified Eagle's Medium (DMEM) medium plus heat inactivated 10% fetal bovine serum (HI FBS) and 500 μg/ml hygromycin B^1. Human mAChR M2 and M4 cells were maintained as above with^2 the addition of 500 μg/ml G418 to the media. Cells were maintained in culture at 37° C./5% CO2 and passaged twice weekly by treatment with 0.05% Trypsin/EDTA detachment solution, centrifugation (200 g, 5 min) and re-suspension in fresh media. Following cell expansion, cells were cryopreserved at −80° C. by treatment with 0.05% Trypsin/EDTA detachment solution, centrifugation (200 g, 5 min) and re-suspension of the pellet in freezing media (90% HI FBS/10% DMSO^3) at 15E6 cells/ml^4.
Prior to assaying, cells were prepared by thawing at 37° C. in a water bath, centrifugation (200 g, 5 min) and re-suspension of the pellet in fresh media. 15000 cells per well were seeded in black, clear bottomed 384-well Greiner Bio-One plates in plating medium (DMEM/10% HI FBS) and incubated overnight at 37 C/5% CO2.
On the day of the assay, media was removed from each well and replaced with 50 μl^5 assay buffer (HBSS with 20 mM HEPES and 2.5 mM Probenecid) containing the calcium indicator, Calcium 4 (Molecular Devices). Cells were then incubated at 37° C./5% CO2 for 30 min and at room temperature.
Compound preparation was carried out by generation of 11-point, 1 in 3 serial dilution concentration response curves in 100% DMSO. Compound was then diluted 1 in 65^6 with assay buffer (HBSS with 20 mM HEPES and 2.5 mM Probenecid) prior to the addition of 10 ul^7 to the cells using a Tetra fluorometric imaging plate reader (Molecular Devices)^8. Compound driven increases in intracellular calcium flux was measured as an increase in fluorescence (494Ex, 516Em)^9.
Positive allosteric modulator pEC50 values and antagonist pIC50 values for each compound were then determined. […] The points of modification and the alternate reagents, concentrations or equipment employed in these examples were: ^1200 μg/ml hygromycin B; ^2G418 not added; ^3CELLBANKER 1; ^410E6; ^5 40 μl; ^6 1 in 99; ^7 20 μl; ^8FDSS6000 (Hamamatsu Photonics); ^9(480Ex, 540Em); ^10Spotfire (TIBCO).
Certain compounds were tested in PAM, NAM and agonist modes against mAChR M2, M3, M4 and M5.
For orientation: Calcium flux is commonly read through the fluorescence of an indicator in the cells.

For another assay, the system named is male Long-Evans rats. In words: Novel Object Recognition Test in Scopolamine-Induced Cognitive Deficit Condition. The conditions noted are these: rat. It is filed as in vivo. The method, then:
For 2 days before starting the test, 6-week old male Long-Evans rats were acclimated to experimental operations such as administration and a test device (that is, a black or gray plastic cage with a width of 40 cm, a depth of 30 cm and a height of 45 cm). Each test compound was dissolved in a 0.5% methylcellulose in water to be orally administered at dosage ranges between 0.01 and 0.1 mg/kg. Thirty minutes after the test compound administration, scopolamine hydrobromide dissolved in a saline was intraperitoneally administered at a 0.7 mg/kg dose, so as to induce cognitive impairment. After another 30 minutes, each rat was acclimated in the test device for 3 minutes, and thereafter, two blocks in the same shape were put in the test device as acquisition trial, and exploring time for each block was measured for 5 minutes. Two hours after the acquisition trial, the rat was acclimated in the test device for 3 minutes, and thereafter, the same block as those used in the acquisition trial and a new block in a different shape were put in the cage for retention trial. The exploring time for each block was measured for 3 minutes, and a ratio of the exploring time for the newly used block to the sum of the exploring times for the respective blocks was calculated as a discrimination index (novel object exploration time/total object exploration time in retention trial×100). […]
Each discrimination index was shown as an average and a standard error. The statistical significance between the vehicle group and the scopolamine alone group was analyzed by the independent t-test. The statistical significance between the scopolamine alone group and each sample group was analyzed by one-way analysis of variance and then by Dunnett's multiple comparison test. […]

A further assay has as its target mAChR M1 (Homo sapiens, UniProt P11229). Kind of assay: In vitro cellular calcium flux assay, positive allosteric modulation of mAChR M1. The class given is cell-based. The conditions noted are these: BHK cells expressing mAChR M1; EC20 carbachol; Examples 76-80 and 82-89 slightly modified procedure. A digest of the protocol: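 Baby hamster kidney cells stably expressing human mAChR M1, loaded with Calcium 4 dye in HBSS/20 mM HEPES/2.5 mM probenecid for 30 min at 37 °C. An 11-point 1-in-3 compound dilution series was added and calcium rise read as fluorescence; positive allosteric modulator pEC50 and antagonist pIC50 derived.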

The test system of another assay is Male Lister Hooded rats. In words: Novel Object Recognition test. It is filed as in vivo. Conditions: rat, 24 h delay. Here is the method:
The Novel Object Recognition test (NOR) is based on the greater spontaneous exploration of a novel object, compared with a familiar object, observed in rodents (Behav. Brain Res., 1988, 31(1), 47-59). […] Therefore, it is considered to be analogous to recognition memory tests used in human clinical testing. Male Lister Hooded rats were assessed for object recognition in a test apparatus comprising of a perspex test arena housed within a sound attenuating chamber. Video images of behaviour were captured by digital camera and recorded to a computer. Rats were habituated to the test arena on four occasions prior to testing. Habituation sessions replicated the test day sequence exactly with the exception of object presentation. On test days, each rat was placed into the test arena and 3 minutes later the rat was presented with two identical objects (plastic shapes). The time spent actively exploring the objects during a 3-minute test period (T1) was recorded. Following T1 rats were returned to home cages. After 24 hours each rat was again placed in the test arena and 3 minutes later was presented with one of the now familiar objects and a novel object, and again the time spent actively exploring the objects during a 3-minute test period (T2) was recorded. The presentation order and position of objects (left/right) was randomised within groups to prevent bias from order or place preference. Objects were cleaned with 70% ethanol solution between trials to remove any olfactory/taste cues. Compounds were administered by oral gavage at an appropriate pre-treatment time prior to T1 and T2 (n=12) at dosage ranges between 0.03 and 3 mg/kg. In some experiments the 5-HT6 receptor antagonist N-(3,5-dichloro-2-methoxyphenyl)-4-methoxy-3-(piperazin-1-yl)benzenesulfonamide (CAS 402713-80-8) (10 mg/kg p.o.; 4 h pre-treatment time) was included as a positive control. Vehicle controls (1% methylcellulose in water) were included for comparison in each study. Results are expressed as the d2 index (difference in time spent exploring novel and familiar objects/total object exploration in T2).

The structures appear in SMILES notation.

Chain of mAChR M4 (P08173 whole entry): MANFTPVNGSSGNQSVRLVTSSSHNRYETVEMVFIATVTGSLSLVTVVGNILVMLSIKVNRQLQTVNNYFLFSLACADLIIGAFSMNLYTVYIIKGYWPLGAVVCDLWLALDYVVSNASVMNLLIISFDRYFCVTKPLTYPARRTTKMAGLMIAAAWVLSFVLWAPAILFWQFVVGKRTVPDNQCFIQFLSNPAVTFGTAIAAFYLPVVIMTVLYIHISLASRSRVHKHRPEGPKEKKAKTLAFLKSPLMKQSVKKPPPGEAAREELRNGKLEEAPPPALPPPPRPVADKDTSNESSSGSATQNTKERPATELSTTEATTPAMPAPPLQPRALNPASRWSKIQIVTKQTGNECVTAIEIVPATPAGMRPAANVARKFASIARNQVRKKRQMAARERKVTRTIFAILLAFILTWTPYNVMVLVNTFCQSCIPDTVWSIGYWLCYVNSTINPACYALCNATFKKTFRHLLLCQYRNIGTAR
Chain of mAChR M1 (P11229 whole entry, looked up): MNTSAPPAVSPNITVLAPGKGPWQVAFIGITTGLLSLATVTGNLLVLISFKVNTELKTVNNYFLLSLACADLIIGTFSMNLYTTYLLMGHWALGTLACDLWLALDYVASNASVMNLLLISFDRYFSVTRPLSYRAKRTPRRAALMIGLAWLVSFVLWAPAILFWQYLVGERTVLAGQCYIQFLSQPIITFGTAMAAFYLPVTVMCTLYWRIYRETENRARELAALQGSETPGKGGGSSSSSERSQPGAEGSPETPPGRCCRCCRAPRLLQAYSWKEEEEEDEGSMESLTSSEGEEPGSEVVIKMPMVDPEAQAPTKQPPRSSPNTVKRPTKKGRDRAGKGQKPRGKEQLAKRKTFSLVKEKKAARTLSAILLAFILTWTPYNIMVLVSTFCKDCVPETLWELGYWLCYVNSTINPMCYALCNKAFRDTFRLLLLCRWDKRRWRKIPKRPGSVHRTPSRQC

As a reminder, the EC50 is the midpoint of the concentration-response curve. Consider `O=C(N[C@H]1CCCC[C@@H]1O)c1cn(Cc2ccc(F)cc2)c2cccnc12` [Example 5, 1-(4-Fluorobenzyl)-N-((1S,2S)-2-hydroxycyclohexyl)-1H-pyrrolo[3,2-b]pyridine-3-carboxamide], for which, on mAChR M4, the EC50 was more than 10 µM. In addition, the “discrimination index [mean ± SEM]” value in the assay with male Long-Evans rats (Scopolamine/0.01 mg/kg p.o.) is “[50.5 ± 4.3]”; in the assay with male Long-Evans rats (Scopolamine/0.03 mg/kg p.o.) it was “[61.7 ± 2.5]”; in the assay on male Long-Evans rats (Scopolamine/0.1 mg/kg p.o.) it was “[72.9 ± 2.6]###”. In addition, the “pEC50 for positive allosteric modulation” value at mAChR M1 was 6.9. Further, the entries for the “d2 index [mean ± SEM]” value in the assay with Male Lister Hooded rats (0.03 mg/kg p.o.), in the assay with Male Lister Hooded rats (0.1 mg/kg p.o.) and in the assay on Male Lister Hooded rats (0.3 mg/kg p.o.) were “[0.04 ± 0.06]”, “[0.20 ± 0.05]**” and “[0.28 ± 0.05]***”, respectively.
